Results: PubChem BioAssay (NCI)
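GI50 is the concentration that inhibits growth by half. Definition used: TGI = concentration required for complete inhibition of growth.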

Experiments:
Test in all cases: NCI tumour cell line growth inhibition, 384-well format
[1] = system: 786-0 renal
[2] = system: A498 renal
[3] = system: A549 NSCLC
[4] = system: ACHN renal
[5] = system: BT-549 breast
[6] = system: CAKI-1 renal
[7] = system: CCRF-CEM leukemia
[8] = system: COLO 205 colon
[9] = system: DU-145 prostate
[10] = system: EKVX NSCLC
[11] = system: HCC-2998 colon
[12] = system: HCT-15 colon
[13] = system: HL-60(TB) leukemia
[14] = system: HOP-92 NSCLC
[15] = system: HS 578T breast
[16] = system: HT29 colon
[17] = system: IGROV1 ovarian
[18] = system: K-562 leukemia
[19] = system: KM12 colon
[20] = system: LOX IMVI melanoma
[21] = system: M14 melanoma
[22] = system: MALME-3M melanoma
[23] = system: MCF7 breast
[24] = system: MDA-MB-231 breast
[25] = system: MDA-MB-435 melanoma
[26] = system: MDA-MB-468 breast
[27] = system: MOLT-4 leukemia
[28] = system: NCI-H226 lung
[29] = system: NCI-H23 lung
[30] = system: NCI-H322M lung
[31] = system: NCI-H460 NSCLC
[32] = system: NCI-H522 lung
[33] = system: NCI/ADR-RES ovarian
[34] = system: OVCAR-3 ovarian
[35] = system: OVCAR-4 ovarian
[36] = system: OVCAR-5 ovarian
[37] = system: OVCAR-8 ovarian
[38] = system: PC-3 prostate
[39] = system: RPMI-8226 leukemia
[40] = system: RXF 393 renal
[41] = system: SF-268 CNS
[42] = system: SF-295 CNS
[43] = system: SF-539 CNS
[44] = system: SK-MEL-28 melanoma
[45] = system: SK-MEL-5 melanoma
[46] = system: SK-OV-3 ovarian
[47] = system: SN12C renal
[48] = system: SNB-19 CNS
[49] = system: SNB-75 CNS
[50] = system: SR leukemia
[51] = system: SW-620 colon
[52] = system: T-47D breast
[53] = system: TK-10 renal
[54] = system: UACC-257 melanoma
[55] = system: UACC-62 melanoma
[56] = system: UO-31 renal

`COCc1cc(C(=O)Nc2cc([C@H]3CC[C@@H](OC(=O)NC(C)C)C3)[nH]n2)n(C)n1` gave a GI50 [1] of 5.05 µM, a TGI [1] of 64.2 µM and a GI50 [2] of 1.52 µM. The TGI [2] was over 100 µM, the GI50 [3] was 3.03 µM and the TGI [3] was over 100 µM. The GI50 [4] was 3.45 µM, the TGI [4] was over 100 µM and the GI50 [5] was 3.38 µM. For the same molecule, the TGI [5] was 20.3 µM, the GI50 [6] was 3.99 µM and the TGI [6] was over 100 µM. It also gave a GI50 [7] of 2.81 µM, a TGI [7] of 7.24 µM and a GI50 [8] of 0.975 µM. For the same molecule, the TGI [8] was 19 µM, the GI50 [9] was 3.14 µM and the TGI [9] was over 100 µM. For the same molecule, the GI50 [10] was 14.9 µM, the TGI [10] was 48.8 µM and the GI50 [11] was 5.15 µM. It also gave a TGI [11] of 25.9 µM, a GI50 [12] of 6.45 µM and a TGI [12] of 37.4 µM. For the same molecule, the GI50 [13] was 1.52 µM, the TGI [13] was 2.89 µM and the GI50 [14] was 14 µM. It also gave a TGI [14] of over 100 µM, a GI50 [15] of 11.4 µM and a TGI [15] of 29.5 µM. It also gave a GI50 [16] of 12.4 µM, a TGI [16] of over 100 µM and a GI50 [17] of 4.47 µM. The TGI [17] was over 100 µM, the GI50 [18] was 13.8 µM and the TGI [18] was 65.2 µM. The GI50 [19] was 0.571 µM, the TGI [19] was 17.2 µM and the GI50 [20] was 3.12 µM. The TGI [20] was 18.9 µM, the GI50 [21] was 4.82 µM and the TGI [21] was 18.8 µM. It also gave a GI50 [22] of 12.3 µM, a TGI [22] of 26.1 µM and a GI50 [23] of 2.66 µM. For the same molecule, the TGI [23] was 13.4 µM, the GI50 [24] was 9.08 µM and the TGI [24] was over 100 µM. It also gave a GI50 [25] of 12.5 µM, a TGI [25] of 84.8 µM and a GI50 [26] of 13.9 µM. It also gave a TGI [26] of 27 µM, a GI50 [27] of 4.36 µM and a TGI [27] of 12.5 µM. The GI50 [28] was 2.85 µM, the TGI [28] was 51.6 µM and the GI50 [29] was 2.48 µM. For the same molecule, the TGI [29] was 10.1 µM, the GI50 [30] was 3.8 µM and the TGI [30] was 13 µM. It also gave a GI50 [31] of 3.07 µM, a TGI [31] of 14.3 µM and a GI50 [32] of 15.1 µM. For the same molecule, the TGI [32] was 31.6 µM, the GI50 [33] was over 100 µM and the TGI [33] was over 100 µM. The GI50 [34] was 5.24 µM, the TGI [34] was 28.8 µM and the GI50 [35] was 18.3 µM. For the same molecule, the TGI [35] was 52.7 µM, the GI50 [36] was 3.12 µM and the TGI [36] was 9.17 µM. For the same molecule, the GI50 [37] was 4.64 µM, the TGI [37] was 36.2 µM and the GI50 [38] was 6.59 µM. The TGI [38] was over 100 µM, the GI50 [39] was 1.84 µM and the TGI [39] was 6.78 µM. It also gave a GI50 [40] of 5.42 µM, a TGI [40] of 23.4 µM and a GI50 [41] of 2.37 µM. It also gave a TGI [41] of 15.4 µM, a GI50 [42] of 10.3 µM and a TGI [42] of 79.3 µM. It also gave a GI50 [43] of 3.97 µM, a TGI [43] of 19.6 µM and a GI50 [44] of 10.3 µM. For the same molecule, the TGI [44] was 22.8 µM, the GI50 [45] was 0.762 µM and the TGI [45] was 13.9 µM. For the same molecule, the GI50 [46] was 8.29 µM, the TGI [46] was 90.1 µM and the GI50 [47] was 4.38 µM. The TGI [47] was 23.9 µM, the GI50 [48] was 5.67 µM and the TGI [48] was over 100 µM. The GI50 [49] was 8.98 µM, the TGI [49] was 22.3 µM and the GI50 [50] was 0.557 µM. It also gave a TGI [50] of 1.86 µM, a GI50 [51] of 2.45 µM and a TGI [51] of 65.4 µM. It also gave a GI50 [52] of 5.58 µM, a TGI [52] of over 100 µM and a GI50 [53] of 14.8 µM. For the same molecule, the TGI [53] was over 100 µM, the GI50 [54] was 6.8 µM and the TGI [54] was 25.3 µM. For the same molecule, the GI50 [55] was 2.98 µM, the TGI [55] was 12.8 µM and the GI50 [56] was 31.5 µM. The TGI [56] was over 100 µM.
